Source: US9642861B2, “Methods of treating oral mucositis” (priority 2006, dated 2017)
“Also recorded” adds a separate entry of the source. Read-outs that look alike come from different tables or passages of the source.

Columns and labels:
[1] = test system: oral mucositis induced in hamsters by acute radiation (40 Gy to left buccal cheek pouch); assay: ACT-02 (Example 1): acute radiation model of oral mucositis in hamsters, mucositis scoring; type: in vivo, Syrian Golden Hamsters; set-up: peak mucositis score (mean daily score): scale not given here
Text: The objective of this study is to evaluate the effect of M40403, administered by either ip or topical routes, with 2 different schedules, on the frequency, severity and duration of oral mucositis induced in hamsters by acute radiation.
The acute radiation model in hamsters, developed by the Principal Investigator, has proven to be an accurate, efficient and cost-effective technique to provide a preliminary evaluation of anti-mucositis compounds (9). The course of mucositis in this model is well defined and results in peak scores approximately 14-16 Days following radiation. The acute model has little systemic toxicity, resulting in few hamster deaths, thus permitting the use of smaller groups (N=7-8) for initial efficacy studies. It has also been used to study specific mechanistic elements in the pathogenesis of mucositis. Molecules that show efficacy in the acute radiation model may be further evaluated in the more complex models of fractionated radiation, chemotherapy, or concomitant therapy.
In this study, an acute radiation dose of 40 Gy on day 0 was administered locally to the cheek pouch. Clinically significant mucositis was observed on days 12 through 28.
Forty-eight male Syrian Golden Hamsters were divided randomly into 6 groups of 8 animals and given an acute radiation dose of 40 Gy directed to their left buccal cheek pouch. This was accomplished by anesthetizing the animals and everting the left buccal pouch, while protecting the rest of the animal with a lead shield. Test materials were given topically or by ip injection twice daily as detailed in Table 1. Mucositis was evaluated clinically starting on Day 6, and continued on alternate days until day 28.
The grade of mucositis was scored, beginning on day 6, and for every second day thereafter, through and including day 28 (for scoring scheme, see Table 2 and FIG. 2). The effect on mucositis of each drug treatment compared to ip vehicle-treated controls was assessed according to the following parameters:
The difference in the number of days hamsters in each group have ulcerative (score≧3) mucositis.
On each evaluation day, the number of animals with a blinded mucositis score of ≧3 in each drug treatment group was compared to the vehicle-treated control group. Differences were compared on a cumulative basis and statistical significance was determined by chi-square analysis. Efficacy, in this analysis, is defined as a significant reduction in the number of days that a group of animals had ulcerations (scores ≧3) when compared to the control group.
For each evaluation day the scores of the control group were compared to those of the treated groups using non-parametric rank sum analysis. Treatment success was considered as a statistically significant lowering of scores in the treated group on 2 or more days from day 6 to day 28.
(§1) All forty-eight (48) male Syrian Golden Hamsters were given an acute radiation dose of 40 Gy directed to their left buccal cheek pouch. This was accomplished by anesthetizing the animals and everting the left buccal pouch, while protecting the rest of the animal with a lead shield. Test materials were given either topically or by ip injection twice daily as detailed in Table 1. Mucositis was evaluated clinically starting on day 6, and continuing on alternate days until day 28. The study timeline is depicted in FIG. 1. Dose levels were determined based on the results of a previous acute toxicity study (data not shown), and the levels shown in Table 1.
Mucositis was induced using a standardized acute radiation protocol. A single dose of radiation (40 Gy/dose) was administered to all animals on day 0. Radiation was generated with a 250 kilovolt potential (15-ma) source at a focal distance of 50 cm, hardened with a 0.35 mm Cu filtration system. Irradiation targeted the left buccal pouch mucosa at a rate of 3.2 Gy/minute. Prior to irradiation, animals were anesthetized with an intra-peritoneal injection of Ketamine (160 mg/kg) and Xylazine (8 mg/kg). […]

[2] = type: in vivo; conditions: for Survival (animal recorded dead in weight table): first study; for survival status noted in Animal Weights table: second study, group 3
Text: All animals were weighed daily and their survival recorded, in order to assess possible differences in animal weight among treatment groups as an indication for mucositis severity and/or possible toxicity resulting from the treatments.
as §1
Male LVG Syrian Golden Hamsters (Charles River Laboratories), aged 5 to 6 weeks, with average body weight of 84.1 g at study commencement, were used. Animals were individually numbered using an ear punch and housed in small groups of approximately 8 animals per cage. Animals were acclimatized prior to study commencement. During this period of 2 days, the animals were observed daily in order to reject animals that presented in poor condition.
The significance of these differences was evaluated by calculating the mean area under the curve for the percentage weight gain for each animal and comparing the groups using a OneWay ANOVA test. There was a significant difference between the control group and group 3 treated by ip injection with M40403 twice daily (30 mg/kg) on days −1 to 15 (P<0.001). There was also a significant difference between the control group and the group treated by ip injection with M40403 twice daily at 30 mg/kg/dose from day −1 to day 3 (P=0.018). No other significant differences were seen. […] Many of the groups with a significant reduction in weight gain are the same groups in which animal deaths were observed.

[3] = test system: animal model of rheumatoid arthritis; conditions: rat, in vivo; cited from earlier work
[4] = test system: animal models of inflammation; conditions: in vivo; cited from earlier work
[5] = group 2: ip 3 mg/kg bid day −1 to 15
[6] = group 3: ip 30 mg/kg bid day −1 to 15
[7] = group 4: top 3 mg/ml bid, 0.2 ml per dose, day −1 to 15
[8] = group 5: top 30 mg/ml bid, 0.2 ml per dose, day −1 to 15
[9] = group 6: ip 30 mg/kg bid day −1 to 3

SMILES: [Cl-].[Cl-].[Mn+2].c1cc2nc(c1)CN[C@@H]1CCCC[C@H]1NCCN[C@@H]1CCCC[C@H]1NC2 [M40403]
- Chi Sq v control, days with mucositis score >=3 [1, 5]: 0.3440
- Days <3 (animal days with a mucositis score below 3) [1, 5]: 126
- Days >=3 (animal days with a mucositis score of 3 or more) [1, 5]: 66
- day of peak mucositis score [1, 5]: 18 days
- peak mucositis score (mean daily score) [1, 5]: 2.8
- progression of mucositis severity compared with control group [1, 5]: very similar to that observed in the control group
- Chi Sq v control, days with mucositis score >=3 [1, 6]: 0.9890
- Days <3 (animal days with a mucositis score below 3) [1, 6]: 96
- Days >=3 (animal days with a mucositis score of 3 or more) [1, 6]: 56
- day of peak mucositis score [1, 6]: 18 days
- peak mucositis score (mean daily score) [1, 6]: 3.0
- progression of mucositis severity compared with control group [1, 6]: indistinguishable from that observed in groups 1 and 2
- progression of mucositis severity compared with control group ([1]; group 4: top 3 mg/ml bid day −1 to 15): closely paralleled those in the control group
- Chi Sq v control, days with mucositis score >=3 [1, 7]: 1.6760
- Days <3 (animal days with a mucositis score below 3) [1, 7]: 119
- Days >=3 (animal days with a mucositis score of 3 or more) [1, 7]: 73
- progression of mucositis severity compared with control group ([1]; group 5: top 30 mg/ml bid day −1 to 15): showed a reduction of mucositis severity on day 10; also recorded: only slightly less than those in the control group
- Chi Sq v control, days with mucositis score >=3 [1, 8]: 0.136
- Days <3 (animal days with a mucositis score below 3) [1, 8]: 128
- Days >=3 (animal days with a mucositis score of 3 or more) [1, 8]: 64
- Chi Sq v control, days with mucositis score >=3 [1, 9]: 7.83
- Days <3 (animal days with a mucositis score below 3) [1, 9]: 120
- Days >=3 (animal days with a mucositis score of 3 or more) [1, 9]: 24
- day of peak mucositis score [1, 9]: 14 days
- peak mucositis score (mean daily score) [1, 9]: 3.0
- progression of mucositis severity compared with control group ([1]; group 6: ip 30 mg/kg bid day −1 to 3, from day 16 to day 28): decreased much more rapidly than the control group
- effect of topical dosing on weight and mucositis severity ([1]; topical dosing, 3 or 30 mg/ml bid day −1 to 15, formulation used here): did not appear to have any effect on either weight or mucositis severity
- Survival (animal recorded dead in weight table) ([2]; Group 2, day 0): dead
- Survival (animal recorded dead in weight table) ([2]; Group 5, day 0): dead
- Survival (animal recorded dead in weight table) ([2]; Group 6, day 0): dead
- deaths during the study ([2]; group 3: ip 30 mg/kg bid day −1 to 15, hamster 19, after extended failure to gain weight): died on day 12
- deaths during the study ([2]; group 6: ip 30 mg/kg bid day −1 to 3, appeared to be anesthesia overdose): two
- average weight gain, % of starting weight by day 28 ([2]; hamster, in vivo, ip, 3 mg/kg): 66.0%
- weight gain during dosing ([2]; hamster, in vivo, ip, 30 mg/kg): general lack of weight gain during dosing
- toxicity based on mortality and body weight ([2]; ip injections twice daily at 30 mg/kg): appear to show some toxicity
- survival status noted in Animal Weights table ([2]; animal 19, day 12): dead
- survival status noted in Animal Weights table ([2]; animal 23, day 0): dead
- efficacy in an animal model of rheumatoid arthritis [3]: effective
- efficacy in animal models of inflammation [4]: effective
